Data on 7 molecules can be found in patent US7388070B1, “Structure-based approach to design of inhibitors of protein-processivity factor interactions” (priority 1999, dated 2008).

Data set [1] is described as follows: CD spectroscopy, helicity from ellipticity at 222 nm. In kind it is physicochemical. As to conditions: calculated from ellipticity values at 222 nm from CD measurements. Here is the method: CD spectroscopy was performed in order to determine if the peptides with the least inhibitory activity were altered structurally. […] Therefore, the lack of inhibitory activity of these two mutants may be at least in part due to alterations in structure.
Lyophilized peptides were resuspended in 10 mM KF and adjusted to pH 8 with KOH. Spectra were recorded at the indicated peptide concentrations with an Aviv 62DS SpectroPolarimeter at 0° C. in a 0.1 cm pathlength cuvette. Wavelength scans were recorded at 1 nm intervals with a 5 second averaging time, and 5 to 10 scans were averaged. Peptide concentrations were determined by quantitative amino acid analysis. Unfolding curves were obtained by monitoring mean residue ellipticity at 222 nm as a function of the concentration of guanidine-HCl and temperature.

A further data set has as its target T1, HSV Pol and UL42 (Human herpesvirus 1, UniProt P10226).
T1 construct: made in house; host or cells: insect cells infected with recombinant baculoviruses
In words: Inhibition of UL42-mediated long-chain DNA synthesis (polymerase assay, poly(dA)/oligo(dT) primer/template). In kind it is biochemical. The text has this:
To perform structure-activity studies, “alanine scan” mutants of peptide E, in which each non-alanine residue was individually converted to an alanine, were synthesized and tested for their ability to inhibit long-chain DNA synthesis by Pol and UTL42. A poly(dA)/oligo(dT15) template/primer was employed. On this primer/template, Pol alone adds only one or two bases, but when UL42 is present, longer DNA products are formed. DNA products greater than 18 bases were quantified at varying peptide concentrations and expressed as a percentage of products formed by Pol/UL42 in the presence of vehicle control.
Reaction mixtures contained 50 mM Tris-Cl (pH 7.6), 100 mM (NH4)2SO4, 3 mM MgCl2, 0.1 mM EDTA, 1 mM dithiothreitol, 0.1 μg BSA, 4% glycerol, 0.25 μg of poly(dA)-oligo(dT) primer/template, […] [^32P]-TTP (5 Ci/mMol), 100 fmol of HSV Pol, 200 fmol of UL42 and varying concentrations of peptide inhibitors in a final volume of 25 μL. Reactions were carried out at 37° C. for 5 to 10 minutes. Reactions were stopped by placing them on ice and adding 5 μL of alkaline loading buffer (2 mM EDTA, 50 mM NaOH, 2.5% glycerol, 0.025% bromcresol green) and were then loaded onto a 4% alkaline agarose gel. Gels were dried overnight and used to expose film and phosphoresence screens. Because Pol alone added only 1-2 nucleotides to the 15 base primer, newly synthesized DNA larger than 18 bases was defined as long-chain and quantified using a Molecular Dynamics Phosphorimager.

For orientation: IC50 means the concentration at which inhibition is half-maximal. The low end stands for inhibition by little substance, the high end for a need for much substance.

T1 sequence (P10226 whole entry): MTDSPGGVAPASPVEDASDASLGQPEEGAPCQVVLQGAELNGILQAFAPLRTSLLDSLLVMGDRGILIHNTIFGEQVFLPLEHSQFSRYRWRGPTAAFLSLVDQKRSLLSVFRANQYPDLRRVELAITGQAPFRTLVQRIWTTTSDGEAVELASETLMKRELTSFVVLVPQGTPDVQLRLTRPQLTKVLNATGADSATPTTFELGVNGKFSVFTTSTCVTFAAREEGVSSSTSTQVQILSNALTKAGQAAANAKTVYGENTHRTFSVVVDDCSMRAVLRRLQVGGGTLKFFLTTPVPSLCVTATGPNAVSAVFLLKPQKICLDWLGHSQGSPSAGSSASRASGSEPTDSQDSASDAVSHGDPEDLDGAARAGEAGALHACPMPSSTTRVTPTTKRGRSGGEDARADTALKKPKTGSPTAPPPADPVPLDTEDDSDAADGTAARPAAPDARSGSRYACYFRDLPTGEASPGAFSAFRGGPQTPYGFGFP

Take `CSCC[C@H](NC(=O)[C@H](CCCNC(=N)N)NC(=O)[C@H](CCCNC(=N)N)NC(=O)[C@@H](NC(=O)[C@H](CCC(=O)O)NC(=O)[C@H](CCC(=O)O)NC(=O)[C@H](C)NC(=O)[C@@H](NC(=O)[C@H](C)NC(=O)CNC(=O)[C@H](C)NC(=O)CNC(=O)[C@@H](NC(=O)[C@H](C)NC(=O)CNC(=O)[C@H](Cc1ccccc1)NC(=O)CNC(=O)[C@H](C)NC(=O)[C@H](C)NC(=O)[C@H](CCCNC(=N)N)NC(=O)[C@H](CC(C)C)NC(=O)[C@H](CCCNC(=N)N)NC(=O)[C@H](C)NC(=O)[C@H](C)NC(=O)[C@@H](NC(=O)[C@H](CC(=O)O)NC(=O)[C@H](CC(=O)O)NC(C)=O)C(C)C)C(C)C)[C@@H](C)O)[C@@H](C)O)C(=O)N[C@@H](CC(C)C)C(=O)N[C@@H](Cc1c[nH]cn1)C(=O)N[C@@H](CCCNC(=N)N)C(=O)N[C@@H](C)C(=O)N[C@@H](Cc1ccccc1)C(=O)N[C@@H](CC(=O)O)C(=O)N[C@H](C(=O)N[C@@H](CC(C)C)C(=O)N[C@@H](C)C(=O)O)[C@@H](C)O` [Peptide A]: the “% Helicity” value in data set [1] is listed as 20%.

In turn, `CSCC[C@H](NC(=O)[C@H](CCCNC(=N)N)NC(=O)[C@H](CCCNC(=N)N)NC(=O)[C@@H](NC(=O)[C@H](CCC(=O)O)NC(=O)[C@H](C)NC(=O)[C@H](C)NC(=O)[C@@H](NC(=O)[C@H](C)N)[C@@H](C)O)[C@@H](C)O)C(=O)N[C@@H](CC(C)C)C(=O)N[C@@H](Cc1c[nH]cn1)C(=O)N[C@@H](CCCNC(=N)N)C(=O)N[C@@H](C)C(=O)N[C@@H](Cc1ccccc1)C(=O)N[C@@H](CC(=O)O)C(=O)N[C@H](C(=O)N[C@@H](CC(C)C)C(=O)N[C@@H](C)C(=O)O)[C@@H](C)O` [Peptide E22A] gave an IC50 against HSV Pol and UL42 of over 100 µM. Consider “Ac-ATAEETRRMLARAFDTLA-NH2 (N-terminus and C-terminus assumed) [Peptide H29A]”, for which, on HSV Pol and UL42, the IC50 was over 100 µM. In addition, the “% Helicity” value in data set [1] is listed as 25%. As to “Ac-ATAEETRRALHRAFDTLA-NH2 (N-terminus and C-terminus assumed) [Peptide M27A]”, the IC50 on HSV Pol and UL42 was over 100 µM.

The molecule `CSCC[C@H](NC(=O)[C@H](CCCNC(=N)N)NC(=O)[C@H](CCCNC(=N)N)NC(=O)[C@@H](NC(=O)[C@H](CCC(=O)O)NC(=O)[C@H](CCC(=O)O)NC(=O)[C@H](C)NC(=O)[C@@H](NC(=O)[C@H](C)NC(C)=O)[C@@H](C)O)[C@@H](C)O)C(=O)N[C@@H](CC(C)C)C(=O)N[C@@H](Cc1c[nH]cn1)C(=O)N[C@@H](CCCNC(=N)N)C(=O)N[C@@H](C)C(=O)N[C@@H](C)C(=O)N[C@@H](CC(=O)O)C(=O)N[C@H](C(=O)N[C@@H](CC(C)C)C(=O)N[C@@H](C)C(N)=O)[C@@H](C)O` [Peptide F32A] displayed a half-maximal inhibitory concentration (IC50) against HSV Pol and UL42 of over 100 µM. For the same molecule, the “% Helicity” value in data set [1] is 28%. Molecule “Ac-ATAEETRRMLHAAFDTLA-NH2 (N-terminus and C-terminus assumed) [Peptide R30A]” yielded an IC50 at HSV Pol and UL42 of over 100 µM. In addition, in data set [1], the “% Helicity” value is 26%. `CSCC[C@H](NC(=O)[C@H](CCCNC(=N)N)NC(=O)[C@H](CCCNC(=N)N)NC(=O)[C@@H](NC(=O)[C@H](CCC(=O)O)NC(=O)[C@H](CCC(=O)O)NC(=O)[C@H](C)NC(=O)[C@H](C)NC(=O)[C@H](C)NC(C)=O)[C@@H](C)O)C(=O)N[C@@H](CC(C)C)C(=O)N[C@@H](Cc1c[nH]cn1)C(=O)N[C@@H](CCCNC(=N)N)C(=O)N[C@@H](C)C(=O)N[C@@H](Cc1ccccc1)C(=O)N[C@@H](CC(=O)O)C(=O)N[C@H](C(=O)N[C@@H](CC(C)C)C(=O)N[C@@H](C)C(N)=O)[C@@H](C)O` [Peptide T20A]: the IC50 against HSV Pol and UL42 is over 100 µM. Further, in data set [1], the “% Helicity” value is on record as 16%.
